From publication PMC11903733 (Frontiers in Pharmacology, 2025)

Key:
HL-60 = test: MTS cell proliferation assay; assay type: cell-based; conditions: Homo sapiens, growth inhibition after 72 h
Experimental: (§1) The myeloid leukemia cell lines MV-4-11, MOLT-4, MOLM-16, HL-60, and the human B lymphocyte cell line […] were purchased from the American Type Culture Collection (ATCC, Manassas, VA, United States). The myeloid leukemia cell line HAL-01 was obtained from the Deutsche Sammlung von Mikroorganismen und Zellkulturen GmbH (DSMZ, Braunschweig, Germany). All cells were cultured in IMDM or RPMI -1640 medium supplemented with 10% FBS, 100 U/mL penicillin, and 100 μg/mL streptomycin. The cells were maintained in a humidified incubator with an atmosphere of 5% CO2 at 37°C.
(§2) The in vitro anti-proliferative activity of the compounds was determined using the CellTiter 96® AQueous NonRadioactive Cell Proliferation Assay Kit (Promega, Madison, United States) as previously described ([Ji et al., 2017]). In brief, 5–10 × 10^3 cells and 180 μL of medium were first seeded into each well of a 96-well plate. Subsequently, the cells were exposed to either 0.2% Dimethyl sulfoxide (DMSO, Aladdin Reagent, Shanghai, China) or a serial dilution of the compounds, prepared from a 10 mM stock solution in DMSO, with the final concentration of DMSO being 0.2% for 72 h. 20 μL of MTS reagent was added to each well, and the culture was incubated in the dark at 37°C for 4 h. Finally, the optical density (OD) was then recorded at 490 nm and 690 nm using a microplate reader from Molecular Devices. The proliferation inhibition rate was calculated according to the following formula: inhibition ratio = (OD of DMSO treated wells - OD of compound treated wells)/(OD of DMSO treated wells - OD of blank wells) × 100%. The IC50 values of the compounds inhibiting cell proliferation were calculated using GraphPad Prism 10 (GraphPad Software Inc., San Diego, CA).
(§3) ^aIC50 (μM) is the concentration of compound needed to reduce cell growth by 50% after 72 h treatment with LTM-1.

MOLT-4 = test: MTS cell proliferation assay; assay type: cell-based; conditions: Homo sapiens, growth inhibition after 72 h
Experimental: as §1, §2, §3

HAL-01 = test: MTS cell proliferation assay; assay type: cell-based; conditions: Homo sapiens, growth inhibition after 72 h
Experimental: as §1, §2, §3

MOLM-16 = test: MTS cell proliferation assay; assay type: cell-based; conditions: MOLM16; growth inhibition after 72 h
Experimental: as §1, §2, §3

[1] = Toxicity in xenografted mice: body weight, serum liver and kidney indices; assay type: in vivo, BALB/c nude mice
Source text: Given the potent inhibitory effect of LTM-1 on MV-4-11 cell proliferation in vitro, a previously reported xenograft animal model was established to measure the anti-tumor growth and development effects of LTM-1 ([Zhou et al., 2022]). The animal experimental design of this study was reviewed and confirmed by the Ethics Committee of China Pharmaceutical University. The experimental procedures complied with the ARRIVE guidelines (https://arriveguidelines.org/). Female BALB/c nude mice aged 4–6 weeks were purchased from Changzhou Cave Animal Co., Ltd. (Changzhou, China). Mice were housed in a specific pathogen-free (SPF) environment, where the temperature was precisely regulated to 25°C ± 2°C, the relative humidity was kept at 50% ± 5%, and a strict 12-h light-dark cycle was maintained. A 200 μL suspension of MV-4-11 cells (1 × 10^6 cells) was injected subcutaneously into the mice. […] The mice were administered drugs via intraperitoneal injection daily, with a total treatment period of 15 days. Mouse weight and tumor volume were measured every 3 days. The tumor volume was calculated using the formula (c × c × d)/2 (where c represents the smallest diameter, and d represents the largest diameter). When the animals could no longer access food and/or the average tumor diameter exceeded 15 mm, the mice were anesthetized with 2.5% isoflurane and euthanized by cervical dislocation to minimize suffering. In addition, the liver and kidney index levels were measured using an automatic biochemical analyzer to evaluate the toxic effects of LTM-1 on mice.

BTK = BTK (Homo sapiens, UniProt Q06187); test: SelectScreen kinase profiling; assay type: biochemical
Chain of BTK (Q06187 whole entry): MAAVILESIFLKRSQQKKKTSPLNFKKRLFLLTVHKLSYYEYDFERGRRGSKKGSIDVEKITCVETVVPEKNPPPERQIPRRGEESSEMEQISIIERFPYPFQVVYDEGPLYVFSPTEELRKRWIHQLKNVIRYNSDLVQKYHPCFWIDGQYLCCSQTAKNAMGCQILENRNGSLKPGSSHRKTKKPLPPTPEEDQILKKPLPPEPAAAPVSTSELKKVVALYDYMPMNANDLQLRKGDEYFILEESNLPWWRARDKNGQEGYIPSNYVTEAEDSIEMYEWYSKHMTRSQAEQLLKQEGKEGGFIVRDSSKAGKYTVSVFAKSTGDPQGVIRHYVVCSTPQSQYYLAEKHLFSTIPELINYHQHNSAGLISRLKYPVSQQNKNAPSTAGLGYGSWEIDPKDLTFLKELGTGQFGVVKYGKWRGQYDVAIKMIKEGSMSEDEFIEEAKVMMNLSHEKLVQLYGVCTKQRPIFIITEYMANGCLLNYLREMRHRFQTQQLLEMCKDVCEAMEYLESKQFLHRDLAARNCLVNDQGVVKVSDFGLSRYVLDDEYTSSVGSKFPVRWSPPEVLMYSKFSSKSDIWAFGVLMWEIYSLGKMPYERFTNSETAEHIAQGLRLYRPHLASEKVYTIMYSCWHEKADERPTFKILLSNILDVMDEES
Experimental: (§4) The kinase selectivity analysis of LTM-1 was performed utilizing the SelectScreen Kinase Profiling Service offered by Thermo Fisher Scientific. In a dose-response assay featuring a ten-point dilution series from 0.25 μM to 128 μM, the inhibitory effects of LTM-1 on substrate phosphorylation reactions catalyzed by a panel of kinases were assessed. Consequently, the half-maximal inhibitory concentrations (IC50 values) for each kinase were determined.

NTRK1 = NTRK1 (Homo sapiens, UniProt P04629); test: SelectScreen kinase profiling; assay type: biochemical
Experimental: as §4

BLK = BLK (Homo sapiens, UniProt P51451); test: SelectScreen kinase profiling; assay type: biochemical
Experimental: as §4

MET = MET (Homo sapiens, UniProt P08581); test: SelectScreen kinase profiling; assay type: biochemical
Experimental: as §4

PDGFRA = PDGFRA (Homo sapiens, UniProt P16234); test: SelectScreen kinase profiling; assay type: biochemical
Experimental: as §4

PLK2 = PLK2 (Homo sapiens, UniProt Q9NYY3); test: SelectScreen kinase profiling; assay type: biochemical
Experimental: as §4

MUSK = MUSK (Homo sapiens, UniProt O15146); test: SelectScreen kinase profiling; assay type: biochemical
Chain of MUSK (O15146 24-869): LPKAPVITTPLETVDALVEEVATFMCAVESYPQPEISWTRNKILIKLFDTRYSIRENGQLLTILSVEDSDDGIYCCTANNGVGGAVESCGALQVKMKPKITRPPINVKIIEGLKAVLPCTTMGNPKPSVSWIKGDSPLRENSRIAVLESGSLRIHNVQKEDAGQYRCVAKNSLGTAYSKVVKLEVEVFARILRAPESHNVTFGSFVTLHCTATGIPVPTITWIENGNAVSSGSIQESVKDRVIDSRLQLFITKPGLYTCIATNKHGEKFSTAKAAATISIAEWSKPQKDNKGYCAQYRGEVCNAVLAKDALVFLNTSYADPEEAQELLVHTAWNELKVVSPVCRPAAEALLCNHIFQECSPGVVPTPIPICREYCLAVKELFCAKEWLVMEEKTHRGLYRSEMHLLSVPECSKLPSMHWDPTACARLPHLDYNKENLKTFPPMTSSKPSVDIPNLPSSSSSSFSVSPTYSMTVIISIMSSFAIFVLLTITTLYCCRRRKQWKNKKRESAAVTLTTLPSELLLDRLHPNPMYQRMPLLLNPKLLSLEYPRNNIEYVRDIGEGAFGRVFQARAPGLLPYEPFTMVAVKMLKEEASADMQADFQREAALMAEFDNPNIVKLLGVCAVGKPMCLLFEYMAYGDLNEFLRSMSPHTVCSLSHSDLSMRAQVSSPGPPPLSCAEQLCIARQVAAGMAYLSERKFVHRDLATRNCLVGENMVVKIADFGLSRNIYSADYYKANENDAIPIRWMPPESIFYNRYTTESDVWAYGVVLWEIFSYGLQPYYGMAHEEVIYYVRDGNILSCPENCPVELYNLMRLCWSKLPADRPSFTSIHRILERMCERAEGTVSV
Experimental: as §4

KIT = KIT (Homo sapiens, UniProt P10721); test: SelectScreen kinase profiling; assay type: biochemical
Chain of KIT (P10721 26-976): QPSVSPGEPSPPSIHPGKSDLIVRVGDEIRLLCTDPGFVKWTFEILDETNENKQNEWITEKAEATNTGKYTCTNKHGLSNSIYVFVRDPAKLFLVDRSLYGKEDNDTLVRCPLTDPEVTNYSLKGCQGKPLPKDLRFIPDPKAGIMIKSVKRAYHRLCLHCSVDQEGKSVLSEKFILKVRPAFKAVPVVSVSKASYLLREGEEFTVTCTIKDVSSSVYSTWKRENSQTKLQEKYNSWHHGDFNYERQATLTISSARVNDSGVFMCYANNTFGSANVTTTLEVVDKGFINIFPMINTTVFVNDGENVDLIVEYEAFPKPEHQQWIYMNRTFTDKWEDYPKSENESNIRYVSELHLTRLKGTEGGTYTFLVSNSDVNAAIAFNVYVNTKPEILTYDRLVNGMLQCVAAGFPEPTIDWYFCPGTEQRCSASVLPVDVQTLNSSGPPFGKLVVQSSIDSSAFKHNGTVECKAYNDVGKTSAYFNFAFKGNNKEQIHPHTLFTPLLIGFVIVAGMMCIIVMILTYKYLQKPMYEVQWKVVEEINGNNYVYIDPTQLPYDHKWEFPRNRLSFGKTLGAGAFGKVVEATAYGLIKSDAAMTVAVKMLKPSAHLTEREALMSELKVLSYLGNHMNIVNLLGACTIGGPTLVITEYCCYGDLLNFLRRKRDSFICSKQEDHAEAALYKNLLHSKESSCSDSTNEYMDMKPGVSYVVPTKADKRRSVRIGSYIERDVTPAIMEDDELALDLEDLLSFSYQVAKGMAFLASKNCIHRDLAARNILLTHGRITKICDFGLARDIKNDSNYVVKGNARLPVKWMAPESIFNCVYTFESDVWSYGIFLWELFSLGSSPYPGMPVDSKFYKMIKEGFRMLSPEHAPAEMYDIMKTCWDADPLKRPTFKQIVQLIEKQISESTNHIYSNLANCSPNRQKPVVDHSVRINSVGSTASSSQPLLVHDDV
Experimental: as §4

MST1R = MST1R (Homo sapiens, UniProt Q04912); test: SelectScreen kinase profiling; assay type: biochemical
Experimental: as §4

EPHB3 = EPHB3 (Homo sapiens, UniProt P54753); test: SelectScreen kinase profiling; assay type: biochemical
Chain of EPHB3 (P54753 34-998): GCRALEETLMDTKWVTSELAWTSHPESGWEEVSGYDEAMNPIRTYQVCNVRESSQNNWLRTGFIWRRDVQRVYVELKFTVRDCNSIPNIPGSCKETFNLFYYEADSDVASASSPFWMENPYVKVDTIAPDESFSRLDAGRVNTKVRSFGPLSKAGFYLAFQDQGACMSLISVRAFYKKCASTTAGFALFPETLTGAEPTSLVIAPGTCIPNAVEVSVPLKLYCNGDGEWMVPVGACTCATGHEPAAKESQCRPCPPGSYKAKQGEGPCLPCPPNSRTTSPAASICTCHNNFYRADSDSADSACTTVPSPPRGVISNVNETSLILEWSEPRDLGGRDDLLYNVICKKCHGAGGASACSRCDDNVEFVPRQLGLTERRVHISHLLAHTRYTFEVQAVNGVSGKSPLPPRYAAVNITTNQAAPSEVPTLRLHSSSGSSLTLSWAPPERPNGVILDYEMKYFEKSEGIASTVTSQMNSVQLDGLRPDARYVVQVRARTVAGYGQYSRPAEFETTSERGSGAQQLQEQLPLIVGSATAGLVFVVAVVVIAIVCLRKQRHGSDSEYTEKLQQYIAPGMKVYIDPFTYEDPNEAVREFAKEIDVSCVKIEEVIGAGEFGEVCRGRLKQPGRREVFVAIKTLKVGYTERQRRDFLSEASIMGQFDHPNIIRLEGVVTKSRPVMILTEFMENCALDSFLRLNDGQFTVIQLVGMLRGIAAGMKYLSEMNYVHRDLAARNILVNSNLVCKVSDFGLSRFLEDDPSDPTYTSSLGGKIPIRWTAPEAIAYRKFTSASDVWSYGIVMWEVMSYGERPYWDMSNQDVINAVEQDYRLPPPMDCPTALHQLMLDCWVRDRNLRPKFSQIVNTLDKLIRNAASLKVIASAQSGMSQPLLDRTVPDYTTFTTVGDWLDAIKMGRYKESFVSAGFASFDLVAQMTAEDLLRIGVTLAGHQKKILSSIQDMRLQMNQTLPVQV
Experimental: as §4

FGFR1 = FGFR1 (Homo sapiens, UniProt P11362); test: SelectScreen kinase profiling; assay type: biochemical
Chain of FGFR1 (P11362 22-822): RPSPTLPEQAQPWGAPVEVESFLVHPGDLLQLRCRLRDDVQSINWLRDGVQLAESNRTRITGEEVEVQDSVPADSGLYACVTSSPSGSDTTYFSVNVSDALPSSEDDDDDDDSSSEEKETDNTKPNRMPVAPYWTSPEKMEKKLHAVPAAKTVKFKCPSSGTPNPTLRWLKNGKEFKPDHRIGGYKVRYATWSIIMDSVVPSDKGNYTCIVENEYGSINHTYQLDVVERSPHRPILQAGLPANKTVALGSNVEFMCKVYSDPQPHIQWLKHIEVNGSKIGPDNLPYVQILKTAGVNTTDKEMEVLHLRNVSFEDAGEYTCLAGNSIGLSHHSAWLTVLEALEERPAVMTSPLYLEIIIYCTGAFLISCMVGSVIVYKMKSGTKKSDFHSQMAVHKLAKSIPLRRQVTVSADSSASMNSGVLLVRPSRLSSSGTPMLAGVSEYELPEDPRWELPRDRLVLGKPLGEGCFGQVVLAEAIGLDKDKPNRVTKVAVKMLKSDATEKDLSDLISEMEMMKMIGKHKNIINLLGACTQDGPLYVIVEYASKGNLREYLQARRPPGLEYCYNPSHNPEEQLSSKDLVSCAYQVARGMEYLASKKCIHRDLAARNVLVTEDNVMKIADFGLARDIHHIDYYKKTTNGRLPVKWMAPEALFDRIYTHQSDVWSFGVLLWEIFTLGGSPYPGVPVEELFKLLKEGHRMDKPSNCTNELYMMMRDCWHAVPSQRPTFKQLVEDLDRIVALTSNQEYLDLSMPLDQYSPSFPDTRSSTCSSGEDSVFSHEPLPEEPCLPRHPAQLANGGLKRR
Experimental: as §4

FGFR3 = FGFR3 (Homo sapiens, UniProt P22607); test: SelectScreen kinase profiling; assay type: biochemical
Experimental: as §4

CDK8 = CDK8 (Homo sapiens, UniProt P49336); test: SelectScreen kinase profiling; assay type: biochemical
Experimental: as §4

PDGFRB = PDGFRB (Homo sapiens, UniProt P09619); test: SelectScreen kinase profiling; assay type: biochemical
Experimental: as §4

ALK = ALK (Homo sapiens, UniProt Q9UM73); test: SelectScreen kinase profiling; assay type: biochemical
Experimental: as §4

DDR1 = DDR1 (Homo sapiens, UniProt Q08345); test: SelectScreen kinase profiling; assay type: biochemical
Experimental: as §4

ZAK = ZAK (Homo sapiens, UniProt Q9NYL2); test: SelectScreen kinase profiling; assay type: biochemical
Chain of ZAK (Q9NYL2 whole entry): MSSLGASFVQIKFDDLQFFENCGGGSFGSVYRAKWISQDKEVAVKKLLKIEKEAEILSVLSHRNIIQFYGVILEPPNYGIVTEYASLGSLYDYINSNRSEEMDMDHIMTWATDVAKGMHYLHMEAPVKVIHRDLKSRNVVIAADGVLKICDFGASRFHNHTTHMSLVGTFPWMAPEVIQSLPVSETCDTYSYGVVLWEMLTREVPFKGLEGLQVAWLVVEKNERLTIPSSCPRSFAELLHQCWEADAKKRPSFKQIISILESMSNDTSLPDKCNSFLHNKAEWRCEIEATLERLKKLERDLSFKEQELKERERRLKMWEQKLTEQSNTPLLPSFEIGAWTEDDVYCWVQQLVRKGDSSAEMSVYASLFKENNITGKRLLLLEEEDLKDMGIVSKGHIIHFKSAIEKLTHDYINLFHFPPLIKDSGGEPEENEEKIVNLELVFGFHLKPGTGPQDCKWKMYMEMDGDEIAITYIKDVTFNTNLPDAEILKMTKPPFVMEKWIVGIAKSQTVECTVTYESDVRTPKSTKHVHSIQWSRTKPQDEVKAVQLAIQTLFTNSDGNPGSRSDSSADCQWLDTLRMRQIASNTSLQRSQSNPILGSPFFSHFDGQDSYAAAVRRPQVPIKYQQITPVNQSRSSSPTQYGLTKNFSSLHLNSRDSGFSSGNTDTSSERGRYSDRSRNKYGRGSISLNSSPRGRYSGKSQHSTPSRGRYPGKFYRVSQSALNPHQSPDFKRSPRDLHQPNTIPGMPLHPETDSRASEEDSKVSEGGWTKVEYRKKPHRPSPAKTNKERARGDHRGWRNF
Experimental: as §4

[2] = compared to the vehicle control group

Compound: O=S(=O)(c1ccc(C(O)CO)c(C(F)(F)F)c1)N1CCc2cc(C3CC3NCC3CCNCC3)ccc21 (stereo not drawn) [LTM-1]
- IC50 (HL-60): 0.39 ± 0.03 µM
- IC50 (MOLT-4): 0.19 ± 0.01 µM
- IC50 (HAL-01): 0.25 ± 0.01 µM
- IC50 (MOLM-16): 0.27 ± 0.02 µM
- body weight of mice ([1]; 10 mg/kg intraperitoneal daily, 15 days, versus vehicle group): no significant differences
- liver and kidney function indices ([1]; LTM-1 treated MV-4-11 xenografted mice): did not induce significant changes
- alanine aminotransferase (ALT) level in mouse serum [1, 2]: no significant changes
- aspartate aminotransferase (AST) level in mouse serum [1, 2]: no significant changes
- blood urea nitrogen (BUN) level in mouse serum [1, 2]: no significant changes
- creatinine (CRE) level in mouse serum [1, 2]: no significant changes
- IC50 (BTK): > 10 µM
- IC50 (NTRK1): > 10 µM
- IC50 (BLK): > 10 µM
- IC50 (MET): > 10 µM
- IC50 (PDGFRA): > 10 µM
- IC50 (PLK2): > 10 µM
- IC50 (MUSK): > 10 µM
- IC50 (KIT): > 10 µM
- IC50 (MST1R): > 10 µM
- IC50 (EPHB3): > 10 µM
- IC50 (FGFR1): > 10 µM
- IC50 (FGFR3): > 10 µM
- IC50 (CDK8): > 10 µM
- IC50 (PDGFRB): > 10 µM
- IC50 (ALK): > 10 µM
- IC50 (DDR1): > 10 µM
- IC50 (ZAK): > 10 µM
